The experiment concerns P388 leukemia ip, CD2F1 mice, survival T/C. As to the kind of experiment: NCI In Vivo Anticancer Drug Screen. Data for tumor model P388 Leukemia (intraperitoneal) in CD2F1 (CDF1) mice. Particulars: endpoint: median survival time, higher = longer survival. In short, it runs like this: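 Mice carrying the transplanted tumor received test compound or vehicle. Survival was recorded in each group, and the value is the treated-group measurement divided by that of the vehicle-treated control group.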

[1] abbreviates: dose: 50.0 mg/kg/injection, schedule: Q01DX005 (ip), vehicle: saline with Tween-80.
The mark [2] stands for this setting: dose: 100.0 mg/kg/injection, schedule: Q01DX005 (ip), vehicle: saline with Tween-80.
Setting [3] is: dose: 200.0 mg/kg/injection, schedule: Q01DX005 (ip), vehicle: saline with Tween-80.
Where [4] appears, read: dose: 400.0 mg/kg/injection, schedule: Q01DX005 (ip), vehicle: saline with Tween-80.
The mark [5] stands for this setting: dose: 100.0 mg/kg/injection, schedule: Q04DX003 (ip), vehicle: saline with Tween-80.
Where [6] appears, read: dose: 200.0 mg/kg/injection, schedule: Q04DX003 (ip), vehicle: saline with Tween-80.
[7] abbreviates: dose: 400.0 mg/kg/injection, schedule: Q04DX003 (ip), vehicle: saline with Tween-80.
The mark [8] stands for this setting: dose: 50.0 mg/kg/injection, schedule: Q01DX009 (ip), vehicle: saline.
The mark [9] stands for this setting: dose: 100.0 mg/kg/injection, schedule: Q01DX009 (ip), vehicle: saline.
Where [10] appears, read: dose: 200.0 mg/kg/injection, schedule: Q01DX009 (ip), vehicle: saline.
Setting [11] is: dose: 50.0 mg/kg/injection, schedule: Q01DX005 (ip), vehicle: Klucel (hydroxypropylcellulose) (HPC).
The mark [12] stands for this setting: dose: 100.0 mg/kg/injection, schedule: Q01DX005 (ip), vehicle: Klucel (hydroxypropylcellulose) (HPC).
Setting [13] is: dose: 200.0 mg/kg/injection, schedule: Q01DX005 (ip), vehicle: Klucel (hydroxypropylcellulose) (HPC).

19 compounds from PubChem BioAssay AID330 (DTP/NCI, 2004) can be followed below.

Values joined by “and” are separate entries in the source; they are usually repeats but may differ in a detail not shown here. Identical values can stand only once. Inconclusive results and toxic doses are left out.

Turning to `COc1cc(Cc2cnc(N)nc2N)cc(OC)c1OC`, the T/C under setting [1] was 100 % of control, the T/C under setting [2] is 99 % of control, the T/C under setting [3] was 100 % of control and the T/C under setting [4] was 100 % of control.

On to `O=S(=O)(O)O.[NH-]CC(N)=O.[NH-]CC(N)=O.[Ni+2]`, for which the T/C reads like this: (dose: 1.0 mg/kg/injection, schedule: Q01DX009 (ip), vehicle: saline) 95 % of control; (dose: 2.0 mg/kg/injection, schedule: Q01DX009 (ip), vehicle: saline) 90 % of control; (dose: 4.0 mg/kg/injection, schedule: Q01DX009 (ip), vehicle: saline) 95 % of control; (dose: 8.0 mg/kg/injection, schedule: Q01DX009 (ip), vehicle: saline) 90 % of control.

With `COc1ccc(/C=N\O)cc1OC`, the T/C under setting [5] was 100 % of control, the T/C under setting [6] was 100 % of control and the T/C under setting [7] is 100 % of control.

In the case of `CN(N=O)C(=O)NCCCCCNC(=O)N(C)N=O`, the T/C was 100 % of control under setting [5]; 104 % of control under setting [6]; 150 % of control and 163 % of control (dose: 400.0 mg/kg/injection, schedule: Q01DX009 (ip), vehicle: saline with Tween-80); 104 % of control under setting [7]; 163 % of control (dose: 600.0 mg/kg/injection, schedule: Q01DX009 (ip), vehicle: saline with Tween-80).

On to `COc1ccc(CSC(=S)Nc2ccc(C)c(Br)c2)cc1`, for which the T/C is 100 % of control under setting [8]; 97 % of control under setting [9]; 91 % of control (dose: 100.0 mg/kg/injection, schedule: Q01DX009 (ip), vehicle: suspension in saline); 106 % of control under setting [10]; 104 % of control (dose: 200.0 mg/kg/injection, schedule: Q01DX009 (ip), vehicle: suspension in saline).

Regarding `CNC(=O)N(C)N=NCCCl`, the T/C under setting [1] was 175 % of control; the T/C (dose: 52.5 mg/kg/injection, schedule: Q01DX005 (ip), vehicle: saline with Tween-80) was 161 % of control; the T/C under setting [2] is 196 % of control; the T/C (dose: 105.0 mg/kg/injection, schedule: Q01DX005 (ip), vehicle: saline with Tween-80) was 181 % of control; the T/C under setting [3] was 297 % of control; the T/C (dose: 210.0 mg/kg/injection, schedule: Q01DX005 (ip), vehicle: saline with Tween-80) was 297 % of control. Also, the T/C under setting [4] is 99 % of control.

`CC(=O)O[C@H]1C[C@@H]2C(COC(=O)CC(C)C)=CO[C@@H](OC(=O)CC(C)C)[C@@H]2[C@@]12CO2`: the T/C was 105 % of control (dose: 3.75 mg/kg/injection, schedule: Q01DX005 (ip), vehicle: Klucel (hydroxypropylcellulose) (HPC)); 101 % of control (dose: 7.5 mg/kg/injection, schedule: Q01DX005 (ip), vehicle: Klucel (hydroxypropylcellulose) (HPC)); 88 % of control (dose: 15.0 mg/kg/injection, schedule: Q01DX005 (ip), vehicle: Klucel (hydroxypropylcellulose) (HPC)); 95 % of control (dose: 30.0 mg/kg/injection, schedule: Q01DX005 (ip), vehicle: Klucel (hydroxypropylcellulose) (HPC)); 101 % of control (dose: 60.0 mg/kg/injection, schedule: Q01DX005 (ip), vehicle: Klucel (hydroxypropylcellulose) (HPC)).

In the case of `c1ccc2c(c1)oc1cc3c(cc12)nnc1cccn13`, the T/C by setting is: (dose: 25.0 mg/kg/injection, schedule: Q01DX005 (ip), vehicle: Klucel (hydroxypropylcellulose) (HPC)) 100 % of control; under setting [11], 96 % of control; under setting [12], 92 % of control; under setting [13], 86 % of control.

As to `COc1cc(C2c3cc4c(c(OC5OC(CO)C(O)C5O)c3CC3COC(=O)C32)OCO4)cc(OC)c1OC` (stereo not given), the T/C by setting is: (dose: 100.0 mg/kg/injection, schedule: Q01DX001 (ip), vehicle: Klucel (hydroxypropylcellulose) (HPC)) 108 % of control; (dose: 200.0 mg/kg/injection, schedule: Q01DX001 (ip), vehicle: Klucel (hydroxypropylcellulose) (HPC)) 108 % of control; (dose: 400.0 mg/kg/injection, schedule: Q01DX001 (ip), vehicle: Klucel (hydroxypropylcellulose) (HPC)) 113 % of control.

On to `COc1ccc(NC2=C(Cl)C(=O)C(Nc3ccc(OC)cc3)=C(Cl)C2=O)cc1`, for which the T/C runs as follows: under setting [1], 95 % of control; under setting [2], 97 % of control; under setting [3], 98 % of control.

For the compound `N#Cc1cccc(/C=C\C(=O)c2ccccc2)c1`, the T/C by setting is: under setting [8], 88 % of control; under setting [9], 100 % of control; under setting [10], 92 % of control.

Consider `Cc1cc2c(c(O)cc(=O)n2Cc2ccccc2)c(=O)n1Cc1ccccc1`, for which the T/C was 102 % of control under setting [11], 94 % of control under setting [12] and 100 % of control under setting [13].

`CNc1cc(NC)c2c(c1N)C(=O)c1ccccc1C2=O`: the T/C runs as follows: (dose: 50.0 mg/kg/injection, schedule: Q04DX002 (ip), vehicle: Klucel (hydroxypropylcellulose) (HPC)) 103 % of control; (dose: 100.0 mg/kg/injection, schedule: Q04DX002 (ip), vehicle: Klucel (hydroxypropylcellulose) (HPC)) 100 % of control; (dose: 200.0 mg/kg/injection, schedule: Q04DX002 (ip), vehicle: Klucel (hydroxypropylcellulose) (HPC)) 101 % of control.

`CCCCN(CCCC)c1nsc(N2CCCCC2)n1`: the T/C was 113 % of control (dose: 45.0 mg/kg/injection, schedule: Q01DX009 (ip), vehicle: saline with Tween-80); 117 % of control (dose: 90.0 mg/kg/injection, schedule: Q01DX009 (ip), vehicle: saline with Tween-80); 118 % of control (dose: 180.0 mg/kg/injection, schedule: Q01DX009 (ip), vehicle: saline with Tween-80).

Take `CC(C)C[C@H]1C(=O)N2CCC[C@H]2[C@]2(O)O[C@](NC(=O)[C@@H]3C=C4c5cccc6[nH]c(Br)c(c56)C[C@H]4N(C)C3)(C(C)C)C(=O)N12`: the T/C is, setting by setting: (dose: 50.0 mg/kg/injection, schedule: Q01DX009 (ip), vehicle: saline with Tween-80) 100 % of control; (dose: 100.0 mg/kg/injection, schedule: Q01DX009 (ip), vehicle: saline with Tween-80) 100 % of control; (dose: 200.0 mg/kg/injection, schedule: Q01DX009 (ip), vehicle: saline with Tween-80) 100 % of control.

For `CC1CC[N-]CC1.CC1CC[N-]CC1.CC1CC[N-]CC1.CC1CC[N-]CC1.CS(C)=O.CS(C)=O.[Cl-].[Cl-].[Cl-].[Cl-].[Pt+4].[Rh+3]`, the T/C by setting is: (dose: 0.19 mg/kg/injection, schedule: Q01DX009 (ip), vehicle: saline) 98 % of control; (dose: 0.38 mg/kg/injection, schedule: Q01DX009 (ip), vehicle: saline) 114 % of control; (dose: 0.75 mg/kg/injection, schedule: Q01DX009 (ip), vehicle: saline) 105 % of control; (dose: 1.5 mg/kg/injection, schedule: Q01DX009 (ip), vehicle: saline) 108 % of control; (dose: 3.0 mg/kg/injection, schedule: Q01DX009 (ip), vehicle: saline) 115 % of control.

With `O=C(CC(O)(C(F)(F)Cl)C(F)(F)Cl)c1ccco1`, the T/C is 109 % of control (dose: 50.0 mg/kg/injection, schedule: Q04DX003 (ip), vehicle: saline with Tween-80); 118 % of control under setting [5]; 100 % of control under setting [6].

Regarding `CN=C(N)N/N=C(\c1ccccc1)c1ccc(Cl)c([N+](=O)[O-])c1`, the T/C reads like this: (dose: 12.5 mg/kg/injection, schedule: Q04DX002 (ip), vehicle: saline with Tween-80) 105 % of control; (dose: 25.0 mg/kg/injection, schedule: Q04DX002 (ip), vehicle: saline with Tween-80) 105 % of control; (dose: 50.0 mg/kg/injection, schedule: Q04DX002 (ip), vehicle: saline with Tween-80) 99 % of control; (dose: 100.0 mg/kg/injection, schedule: Q04DX002 (ip), vehicle: saline with Tween-80) 97 % of control; (dose: 200.0 mg/kg/injection, schedule: Q04DX002 (ip), vehicle: saline with Tween-80) 98 % of control; (dose: 400.0 mg/kg/injection, schedule: Q04DX002 (ip), vehicle: saline with Tween-80) 113 % of control.

Regarding `Clc1ccc(-c2nc3ccccc3nc2-c2ccc(Cl)cc2)cc1`, the T/C is 101 % of control (dose: 50.0 mg/kg/injection, schedule: Q01DX009 (ip), vehicle: Klucel (hydroxypropylcellulose) (HPC)); 111 % of control (dose: 100.0 mg/kg/injection, schedule: Q01DX009 (ip), vehicle: Klucel (hydroxypropylcellulose) (HPC)); 106 % of control (dose: 200.0 mg/kg/injection, schedule: Q01DX009 (ip), vehicle: Klucel (hydroxypropylcellulose) (HPC)).
